Laboratory results published in patent US10131652B2, “Pyrimidinyloxy benzene derivatives as herbicides” (E. I. DU PONT DE NEMOURS AND COMPANY, priority 2014, dated 2018).
Where two headings read alike, the source gives them in different places.

Tests used:
Assay in all cases: Test D pre-/postemergence plant response
Format in all cases: in vivo
[1] = tested on: morningglory (Ipomoea coccinea); settings: Ipomoea; for pest or weed control at 16 g/ha: 16 g ai/ha; for pest or weed control at 31 g/ha: 31 g ai/ha; for pest or weed control at 62 g/ha: 62 g ai/ha; for pest or weed control at 125 g/ha: 125 g ai/ha
Method in brief: (§1)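 Two application timings were run together: preemergence onto seeded loam–sand pots, and postemergence onto 1- to 4-leaf plants (2 to 18 cm) in peat/vermiculite medium with starter nutrients. Formulation was a non-phytotoxic solvent with surfactant. Ratings, 0 to 100, were made visually versus controls after 13 to 15 greenhouse days.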

[2] = tested on: oilseed rape (Brassica napus); settings: Brassica napus; for plant injury at 16 g/ha: 16 g ai/ha; for plant injury at 31 g/ha: 31 g ai/ha; for plant injury at 62 g/ha: 62 g ai/ha; for plant injury at 125 g/ha: 125 g ai/ha
Method in brief: as §1

[3] = tested on: pigweed (Amaranthus retroflexus); settings: Amaranthus retroflexus; for pest or weed control at 16 g/ha: 16 g ai/ha; for pest or weed control at 31 g/ha: 31 g ai/ha; for pest or weed control at 62 g/ha: 62 g ai/ha; for pest or weed control at 125 g/ha: 125 g ai/ha
Method in brief: as §1

[4] = tested on: ragweed (common ragweed, Ambrosia elatior); settings: Ambrosia artemisiifolia; for pest or weed control at 16 g/ha: 16 g ai/ha; for pest or weed control at 31 g/ha: 31 g ai/ha; for pest or weed control at 62 g/ha: 62 g ai/ha; for pest or weed control at 125 g/ha: 125 g ai/ha
Method in brief: as §1

soybean (Glycine max) = settings: Glycine max; for plant injury at 16 g/ha: 16 g ai/ha; for plant injury at 31 g/ha: 31 g ai/ha; for plant injury at 62 g/ha: 62 g ai/ha; for plant injury at 125 g/ha: 125 g ai/ha
Method in brief: as §1

[5] = tested on: velvetleaf (Abutilon theophrasti); settings: Abutilon theophrasti; for pest or weed control at 16 g/ha: 16 g ai/ha; for pest or weed control at 31 g/ha: 31 g ai/ha; for pest or weed control at 62 g/ha: 62 g ai/ha; for pest or weed control at 125 g/ha: 125 g ai/ha
Method in brief: as §1

[6] = tested on: waterhemp (common waterhemp, Amaranthus rudis); settings: Amaranthus tuberculatus; for pest or weed control at 16 g/ha: 16 g ai/ha; for pest or weed control at 31 g/ha: 31 g ai/ha; for pest or weed control at 62 g/ha: 62 g ai/ha; for pest or weed control at 125 g/ha: 125 g ai/ha
Method in brief: as §1

[7] = tested on: winter wheat (Triticum aestivum); settings: Triticum aestivum; for plant injury at 16 g/ha: 16 g ai/ha; for plant injury at 31 g/ha: 31 g ai/ha; for plant injury at 62 g/ha: 62 g ai/ha; for plant injury at 125 g/ha: 125 g ai/ha
Method in brief: as §1

[8] = tested on: yellow nutsedge (Cyperus esculentus); settings: Cyperus; for pest or weed control at 16 g/ha: 16 g ai/ha; for pest or weed control at 31 g/ha: 31 g ai/ha; for pest or weed control at 62 g/ha: 62 g ai/ha; for pest or weed control at 125 g/ha: 125 g ai/ha
Method in brief: as §1

[9] = post-emergence, Postemergence, scale 0 to 100 (0 no effect, 100 complete control), read-out: Morningglory plant response rating
[10] = post-emergence, Postemergence, scale 0 to 100, 0 no effect, 100 complete control, read-out: Plant response rating, Morningglory
[11] = pre-emergence, Preemergence, scale 0 to 100 (0 no effect, 100 complete control), read-out: Plant response rating, Morningglory
[12] = post-emergence, Postemergence, scale 0 to 100 (0 no effect, 100 complete control), read-out: Oilseed Rape plant response rating
[13] = post-emergence, Postemergence, scale 0 to 100, 0 no effect, 100 complete control, read-out: Plant response rating, Oilseed Rape
[14] = pre-emergence, Preemergence, scale 0 to 100 (0 no effect, 100 complete control), read-out: Plant response rating, Oilseed Rape
[15] = post-emergence, Postemergence, scale 0 to 100 (0 no effect, 100 complete control), read-out: Pigweed plant response rating
[16] = post-emergence, Postemergence, scale 0 to 100, 0 no effect, 100 complete control, read-out: Plant response rating, Pigweed
[17] = pre-emergence, Preemergence, scale 0 to 100 (0 no effect, 100 complete control), read-out: Plant response rating, Pigweed
[18] = post-emergence, Postemergence, scale 0 to 100 (0 no effect, 100 complete control), read-out: Ragweed plant response rating
[19] = post-emergence, Postemergence, scale 0 to 100, 0 no effect, 100 complete control, read-out: Plant response rating, Ragweed
[20] = pre-emergence, Preemergence, scale 0 to 100 (0 no effect, 100 complete control), read-out: Plant response rating, Ragweed
[21] = post-emergence, Postemergence, scale 0 to 100 (0 no effect, 100 complete control), read-out: Soybean plant response rating
[22] = post-emergence, Postemergence, scale 0 to 100, 0 no effect, 100 complete control, read-out: Plant response rating, Soybean
[23] = pre-emergence, Preemergence, scale 0 to 100 (0 no effect, 100 complete control), read-out: Plant response rating, Soybean
[24] = post-emergence, Postemergence, scale 0 to 100 (0 no effect, 100 complete control), read-out: Velvetleaf plant response rating
[25] = post-emergence, Postemergence, scale 0 to 100, 0 no effect, 100 complete control, read-out: Plant response rating, Velvetleaf
[26] = pre-emergence, Preemergence, scale 0 to 100 (0 no effect, 100 complete control), read-out: Plant response rating, Velvetleaf
[27] = post-emergence, Postemergence, scale 0 to 100 (0 no effect, 100 complete control), read-out: Waterhemp plant response rating
[28] = post-emergence, Postemergence, scale 0 to 100, 0 no effect, 100 complete control, read-out: Plant response rating, Waterhemp
[29] = pre-emergence, Preemergence, scale 0 to 100 (0 no effect, 100 complete control), read-out: Plant response rating, Waterhemp
[30] = post-emergence, Postemergence, scale 0 to 100 (0 no effect, 100 complete control), read-out: Wheat plant response rating
[31] = post-emergence, Postemergence, scale 0 to 100, 0 no effect, 100 complete control, read-out: Plant response rating, Wheat
[32] = pre-emergence, Preemergence, scale 0 to 100 (0 no effect, 100 complete control), read-out: Plant response rating, Wheat
[33] = post-emergence, Postemergence, scale 0 to 100 (0 no effect, 100 complete control), read-out: Nutsedge, Yellow plant response rating
[34] = post-emergence, Postemergence, scale 0 to 100, 0 no effect, 100 complete control, read-out: Plant response rating, Nutsedge, Yellow
[35] = pre-emergence, Preemergence, scale 0 to 100 (0 no effect, 100 complete control), read-out: Plant response rating, Nutsedge, Yellow

Fc1cccc(Oc2ncc(Cl)cn2)c1-c1cc(C(F)F)on1 [Compound 55, 5-chloro-2-[2-[5-(difluoromethyl)-3-isoxazolyl]-3-fluorophenoxy]pyrimidine]
25%: pest or weed control at 16 g/ha [4, 18] | plant injury at 16 g/ha (soybean (Glycine max); [23]) | plant injury at 31 g/ha [7, 30] | plant injury at 62 g/ha [7, 32]
0%: plant injury at 16 g/ha [7, 32] | plant injury at 31 g/ha [7, 32] | pest or weed control at 16 g/ha [8, 33] | pest or weed control at 16 g/ha [8, 35]
98%: pest or weed control at 62 g/ha [3, 16] | plant injury at 125 g/ha (soybean (Glycine max); pre-emergence, Preemergence, read-out: Plant response rating (scale 0 to 100), Soybean) | pest or weed control at 62 g/ha [6, 28]
30%: plant injury at 62 g/ha [7, 31]
65%: pest or weed control at 62 g/ha [4, 19] | plant injury at 16 g/ha (soybean (Glycine max); [21])
5%: plant injury at 16 g/ha [7, 30] | pest or weed control at 31 g/ha [8, 33] | pest or weed control at 62 g/ha [8, 34] | pest or weed control at 125 g/ha [8, 34]
10%: pest or weed control at 16 g/ha [1, 11] | pest or weed control at 31 g/ha [8, 35]
55%: pest or weed control at 62 g/ha [8, 35]
75%: pest or weed control at 31 g/ha [4, 20] | plant injury at 31 g/ha (soybean (Glycine max); [21]) | pest or weed control at 62 g/ha [5, 25]
85%: pest or weed control at 125 g/ha [1, 10] | pest or weed control at 16 g/ha [3, 15] | pest or weed control at 31 g/ha [3, 15] | pest or weed control at 125 g/ha [5, 25] | pest or weed control at 16 g/ha [6, 27]
40%: pest or weed control at 31 g/ha [4, 18]
90%: pest or weed control at 125 g/ha [4, 19] | pest or weed control at 62 g/ha [4, 20] | plant injury at 62 g/ha (soybean (Glycine max); [22]) | pest or weed control at 16 g/ha [5, 26] | pest or weed control at 31 g/ha [6, 27]
60%: plant injury at 125 g/ha ([7]; pre-emergence, Preemergence, read-out: Plant response rating (scale 0 to 100), Wheat)
70%: pest or weed control at 16 g/ha [1, 9] | pest or weed control at 31 g/ha [1, 9] | pest or weed control at 16 g/ha [4, 20] | pest or weed control at 125 g/ha ([8]; pre-emergence, Preemergence, read-out: Plant response rating (scale 0 to 100), Nutsedge, Yellow)
100%: pest or weed control at 125 g/ha ([1]; pre-emergence, Preemergence, read-out: Plant response rating (scale 0 to 100), Morningglory) | pest or weed control at 62 g/ha [1, 11] | plant injury at 62 g/ha [2, 13] | plant injury at 125 g/ha [2, 13] | plant injury at 125 g/ha ([2]; pre-emergence, Preemergence, read-out: Plant response rating (scale 0 to 100), Oilseed Rape) | plant injury at 16 g/ha [2, 14] | plant injury at 31 g/ha [2, 14] | plant injury at 62 g/ha [2, 14] | pest or weed control at 125 g/ha [3, 16] | pest or weed control at 125 g/ha ([3]; pre-emergence, Preemergence, read-out: Plant response rating (scale 0 to 100), Pigweed) | pest or weed control at 16 g/ha [3, 17] | pest or weed control at 31 g/ha [3, 17] | pest or weed control at 62 g/ha [3, 17] | pest or weed control at 125 g/ha ([5]; pre-emergence, Preemergence, read-out: Plant response rating (scale 0 to 100), Velvetleaf) | pest or weed control at 31 g/ha [5, 26] | pest or weed control at 62 g/ha [5, 26] | pest or weed control at 125 g/ha [6, 28] | pest or weed control at 125 g/ha ([6]; pre-emergence, Preemergence, read-out: Plant response rating (scale 0 to 100), Waterhemp) | pest or weed control at 16 g/ha [6, 29] | pest or weed control at 31 g/ha [6, 29] | pest or weed control at 62 g/ha [6, 29]
95%: plant injury at 16 g/ha [2, 12] | plant injury at 31 g/ha [2, 12] | pest or weed control at 125 g/ha ([4]; pre-emergence, Preemergence, read-out: Plant response rating (scale 0 to 100), Ragweed) | plant injury at 125 g/ha (soybean (Glycine max); [22]) | plant injury at 62 g/ha (soybean (Glycine max); [23])
35%: plant injury at 31 g/ha (soybean (Glycine max); [23]) | pest or weed control at 16 g/ha [5, 24] | plant injury at 125 g/ha [7, 31]
50%: pest or weed control at 31 g/ha [1, 11] | pest or weed control at 31 g/ha [5, 24]
80%: pest or weed control at 62 g/ha [1, 10]
